Test results taken from patent US5610299A (priority 1995, dated 1997).

tested on: GABA binding site / benzodiazepine binding site; assay: not given; settings: Tallman et al. 1978; cited from earlier work

Row | Structure (SMILES) | block of enhancement of benzodiazepine binding by GABA agonists
1 | CN1CCc2cc3c(cc2C1C1OC(=O)c2c1ccc1c2OCO1)OCO3 (single isomer, unassigned; (+)) [(+) bicuculline] | blocked
2 | CN1CCc2cc3c(cc2C1C1OC(=O)c2c1ccc1c2OCO1)OCO3 (single isomer, unassigned; (-)) [(-) bicuculline] | much less active

molecular target: GABAa receptor; assay: GABAa receptor binding activity ([3H]-RO15-1788 displacement, rat cortical tissue); settings: 0.5 nM [3H]-RO15-1788, 30 min at 4° C., nonspecific with 1.0 μM diazepam
Description: The pharmaceutical utility of compounds of this invention are indicated by the following assay for GABAa receptor binding activity.
Assays are carried out as described in Thomas and Tallman (J. Bio. Chem. 156:9838-9842, J. Neurosci. 3:433-440, 1983). Rat conical tissue is dissected and homogenized in 25 volumes (w/v) of 0.05M Tris HCl buffer (pH 7.4 at 4° C.). The tissue homogenate is centrifuged in the cold (4°) at 20,000×g for 20'. The supernatant is decanted and the pellet is rehomogenized in the same volume of buffer and again centrifuged at 20,000×g. The supernatant is decanted and the pellet is frozen at -20° C. overnight. The pellet is then thawed and rehomogenized in 25 volume (original wt/vol) of buffer and the procedure is carried out twice. The pellet is finally resuspended in 50 volumes (w/vol of 0.05M Tris HCl buffer (pH 7.4 at […]).
Incubations contain 100 μl of tissue homogenate, 100 μl of radioligand 0.5 nM (^3 H-RO15 -1788 [^3 H-Flumazenil] specific activity 80 Ci/mmol), drug or blocker and buffer to a total volume of 500 μl. Incubations are carried for 30 min at 4° C. then are rapidly filtered through GFB filters to separate free and bound ligand. Filters are washed twice with fresh 0.05M Tris HCl buffer (pH 7.4 at 4° C.) and counted in a liquid scintillation counter. 1.0 μM diazepam is added to some tubes to determine nonspecific binding. Data are collected in triplicate determinations, averaged and % inhibition of total specific binding is calculated. Total Specific Binding=Total-Nonspecific. In sonic cases, the amounts of unlabeled drugs is varied and total displacement curves of binding are carried out. Data are converted to a form for the calculation of IC50 and Hill Coefficient (nH).

Row | Structure (SMILES) | IC50 [µM]
3 | COc1ccc(-c2ncc3[nH]c4ccccc4n3c2=O)cc1 [Compound 1, 2-(4-Methoxyphenyl)-benzimidazo[1,2-a]pyrazin-1(5H)-one] | 0.015
4 | COc1ccc(F)c(-c2ncc3[nH]c4ccccc4n3c2=O)c1 [Compound 2, 2-(2-Fluoro-5-methoxyphenyl)-benzimidazo[1,2-a]pyrazin-1(5H)-one] | 0.167
5 | O=c1c(-c2ccccc2)ncc2[nH]c3ccccc3n12 [Compound 3, 2-Phenyl-benzimidazo[1,2-a]pyrazin-1(5H)-one] | 0.093
6 | COc1cccc(-c2ncc3[nH]c4ccccc4n3c2=O)c1 [Compound 4] | 0.061
